Source: patent US4698330A, “Somnogenic compositions and method of use” (President & Fellows of Harvard College, priority 1983, dated 1987)
Several values for one entry are separate records, joined by “and”; a condition that tells them apart may be missing. Equal values may be shown once.

Legend:
rabbits [1] = assay: Brain/body temperature (pyrogenic response) after intraventricular infusion in rabbits; format: in vivo, rabbit; conditions: for ΔTmax, maximum increase in temperature: intraventricular, brain temperature, single rabbits, listed as AcMur--Ala--iGln
Procedure: (§1) Acetaminophen (Sigma) was dissolved in sterile pyrogen-free saline.

cats = assay: Intraventricular infusion in cats, SWS, REM sleep and brain temperature; format: in vivo, cat; conditions: intraventricular 200-500 pmol, four cats
Procedure: as §1
Each of four cats was infused intraventricularly one or more times with AcMur-ala-igln or AcMur-ala-igln-lys (200-500 pmol). The responses were more complex than those in rabbits. […] Only after the febrile response had reached its peak did the cats start to sleep for abnormally long periods in deep stage II SWS alternating with periods of REM sleep. The SWS and temperature responses of one cat to 250 pmol of AcMur-ala-igln-lys delivered intraventricularly during 15 min prior to start of recording is shown in FIG. 3. […] A similar delay in the onset of excess SWS was noted by Garcia-Arraras (12) after infusion of natural sleep factor in cats.
Excess SWS induced by AcMur-ala-igln-lys lasted for 3-8 hr after infusion. (A) - - - , Control=37.7 plus or minus 0.2° C. (B) - - - , Control=27 plus or minus 5%. Similar responses were observed following one or more infusions of AcMur-ala-igln or AcMur-ala-igln-lys in each of four cats.

rabbits [2] = assay: Intraperitoneal injection / stomach tube administration in rabbits, sleep response; format: in vivo, rabbit; conditions: two rabbits, intraperitoneal injection / stomach tube (5 mg/kg)
Procedure: In two rabbits, sleep responses were recorded after intraperitoneal injection of AcMur-ala-igln by stomach tube (5 mg/kg).

rabbits [3] = assay: Antipyretic (acetaminophen, indomethacin, aspirin) with AcMur-ala-igln in rabbits, SWS and temperature; format: in vivo
Procedure: as §1
For this reason, the less toxic acetaminophen was used to suppress the pyrogenic effects of AcMur-ala-igln.
In FIG. 5, the symbols mean the following: , AAP alone; , AAP followed by 120 μg of AcMur-ala-igln intravanously at time zero. Each value is mean ±SEM of six assays in six rabbits. In A, the average of the individual increases (ΔT values) in rectal temperature induced by AcMur-ala-igln together with AAP is compared with that induced by AAP alone in each of six rabbits.

squirrel monkey = conditions: cited abstract (reference 2); cited from earlier work
rabbits [4] = assay: Intravenous injection in rabbits, SWS and side effects
Procedure: New Zealand rabbits (male, 3-5 kg) or domestic cats were adapted to the infusion cages in a temperature-controlled room (21°-2° C.) on a 12:12 light/dark cycle. Intraventricular infusions or systemic injections were carried out between 0800 and 1000 hr and were followed by 6 or more hr of recording without disturbing the animals. […] Indomethacin for intravenous injection was dissolved in a small amount of EtOH and diluted with 150 mM NaHCO3 to a concentration of 5 mg/ml. Acetaminophen (Sigma) was dissolved in sterile pyrogen-free saline.
(§2) EEG, electro-oculogram, and bodily movements were recorded on Grass polygraphs. The amplitude of EEG slow waves was recorded as the rms-rectified output from a 0.5- to 4-Hz bandpass filter (Bunco Electronics, Sharon, (T); the rms component was integrated and the integral was printed on tape every 2 min, thus providing an objective measure of the product of amplitude and duration of EEG slow waves. Each record was also analyzed visually for duration of SWS in rabbits and for both SWS and REM sleep in cats. The infusion and recording systems and examples of analysis of records are described in 1, 12, 15.
Each value is mean ±SEM of 11 assays in eight rabbits.

rabbits [5] = assay: Intraventricular infusion in rabbits, EEG slow-wave sleep (SWS); conditions: for % SWS, 6 hr post infusion, Expt / % SWS Expt.: hr 2-6 after infusion; for % SWS, 6 hr post infusion, Expt: mean ± SEM or range
Procedure: Calibrated glass bead thermistors (Fenwall; 1.2-mm outside diameter, 50 omega/°C.) were implanted through burr holes in frontal bone: the thermistor leads were buried in a mound of dental cement that also insulated the screw electrodes and supported a 9-pin miniature electrical connector. In some experiments, the rectal temperatures were measured at intervals by using a calibrated thermistor probe; temperatures estimated from the implanted brain thermistors were generally within 0.3° C. of simultaneously recorded rectal temperature.
New Zealand rabbits (male, 3-5 kg) or domestic cats were adapted to the infusion cages in a temperature-controlled room (21°-2° C.) on a 12:12 light/dark cycle. Intraventricular infusions or systemic injections were carried out between 0800 and 1000 hr and were followed by 6 or more hr of recording without disturbing the animals.
as §2

[6] = much smaller doses delivered intraventricularly

CC(=O)N[C@@H]1[C@@H](O[C@H](C)C(=O)N[C@@H](C)C(=O)N[C@H](CCC(=O)O)C(N)=O)[C@H](O)[C@@H](CO)O[C@H]1O [MDP, 2-(2-acetamido-2-desoxy-3-O-D-glucopyranosyl)-D-propionyl-L-alanyl-D-isoglutamine]
average ΔT (rabbits [1]; AcMur-ala-igln alone (Table 1)): 1.9±0.2 °C
ΔTmax, maximum increase in temperature (rabbits [1]; dose 75 pmol): 2.8 °C and 1.6 °C
ΔTmax, maximum increase in temperature (rabbits [1]; dose 125 pmol): 1.1 °C and 1.5 °C
REM sleep during 2-4 hr after the infusion (cats): completely suppressed
SWS after the initial period of sleep suppression (cats): abnormally long period of deep SWS
increase of SWS for 6 hr (rabbits [2]): ca. 50%
hourly % SWS (mean ±SEM) (rabbits [3]; AAP 10 mg/kg i.v. followed 30 min later by AcMur-ala-igln 120 μg i.v., six rabbits, FIG. 5): 67±3%
time after which toxic reactions developed (rabbits [3]; AcMur-ala-igln 120 μg/kg i.v. after acetaminophen 10 mg/kg i.v.): about 4 hr
average ΔT, rectal temperature (rabbits [3]; AcMur-ala-igln i.v. with AAP, six rabbits): less than 0.7 °C
effect on non-REM and REM sleep (squirrel monkey): induces non-REM but not REM sleep
time of return of sleep response to near control values (rabbits [4]; intravenous 150-200 nmol/kg): ≤ 5 h
time of maximum sleep response after injection (rabbits [4]; intravenous 150-200 nmol/kg (75-100 μg), FIG. 4): about 3 hr
side effects noted in some animals (rabbits [4]; intravenous 150-200 nmol/kg, after 3 to 4 hr): abnormal lacrimation, nasal secretion, and inflammation
time after which deleterious side effects occurred (rabbits [4]; intravenous, doses sufficient to induce excess SWS and pyrexia): about 3 hr
number of episodes of SWS having durations of 1-8 min (rabbits [5]; hr 2 to hr 6 after administration, eight rabbits, FIG. 2): no significant effect
number of episodes of SWS having durations greater than 8 min (rabbits [5]; hr 2 to hr 6 after administration, eight rabbits, FIG. 2, P<0.0125): increased
amount required to induce a comparable increase of SWS for 6 hr, relative to the natural product (factor S) (rabbits [5]; intraventricular): roughly 10 times
hourly percentage of SWS (rabbits [5]; intraventricular 75-150 pmol, for 6 hr or more after the infusion, control about 40%): about 60%
persistence of the effects (rabbits [5]; intraventricular infusion): 6 to 12 h
% SWS, 6 hr post infusion, Expt (rabbits [5]; intraventricular, dose 0.01 nmol): 39 ± 4%
% SWS, 6 hr post infusion, Expt (rabbits [5]; intraventricular, dose 0.05 nmol): 49 ± 3%
% SWS Expt. (rabbits [5]; intraventricular, dose 75 pmol, single rabbits, listed as AcMur--Ala--iGln): 55% and 43%
% SWS, 6 hr post infusion, Expt (rabbits [5]; intraventricular, dose 0.1 nmol): 62 ± 7%
% SWS Expt. (rabbits [5]; intraventricular, dose 120 pmol, single rabbits, listed as AcMur--Ala--iGln): 94% and 69%
Amplitude of slow wave, Expt. (rabbits [5]; intraventricular, dose 120 pmol, rms-rectified voltage of 0.5 to 4 Hz band, single rabbits, listed as AcMur--Ala--iGln): 56 μV and 42 μV
% SWS Expt. (rabbits [5]; intraventricular, dose 125 pmol, single rabbits, listed as AcMur--Ala--iGln): 38% and 60%
% SWS, 6 hr post infusion, Expt (rabbits [5]; intraventricular, dose 1.0 nmol): 76 ± 7%
% SWS, 6 hr post infusion, Expt (rabbits [5]; intraventricular, dose 10.0 nmol): 65 ± 6%
deleterious effects (rabbits [5]; [6]): did not cause deleterious effects
duration of excess SWS (rabbits [5]; [6]): 6 to 10 h
